Test results as given in US20240041042A1, “1-(PYRIDYL)-5-AZINYLPYRAZOLE DERIVATIVES, AND THEIR USE FOR CONTROL OF UNDESIRED PLANT GROWTH” (Bayer Aktiengesellschaft, priority 2020, published 2024).
Read-outs that look alike come from different tables or passages of the source.

Key:
Assay type in all cases: in vivo
[1] = test system: Matricaria inodora (MATIN); assay: Pre-emergence herbicidal action against MATIN
In short: (§1)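 Greenhouse pot trial: seeds sown, soil-covered, sprayed before emergence with compound in water (0.5% additive; 600 l/ha; ≤320 g/ha). Scoring visual, ~3 weeks, 0–100% scale vs untreated.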

[2] = test system: Alopecurus myosuroides (ALOMY); assay: Post-emergence herbicidal action against ALOMY; conditions: visual rating about 3 weeks after treatment vs untreated controls (100% = plants have died, 0% = like control plants)
In short: (§2)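 Post-emergence greenhouse spray, one-leaf stage, 600 l/ha water plus 0.5% additive; WP or EC formulations; application rates 320 g/ha or lower. Visual % damage vs untreated controls at ~3 weeks.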

[3] = test system: Amaranthus retroflexus (AMARE); assay: Pre-emergence herbicidal action against AMARE; conditions: visual scoring after about 3 weeks vs untreated controls
In short: as §1

[4] = test system: Amaranthus retroflexus (AMARE); assay: Post-emergence herbicidal action against AMARE
In short: as §2

[5] = test system: Verconica persica (VERPE); assay: Pre-emergence herbicidal action against VERPE; conditions: dosage 320 g/ha
In short: as §1

Zea mays (ZEAMX) [6] = conditions: pre-emergence, 80 g/ha, crop plant compatibility, in comparison to untreated controls
From the text: (§3) Seeds of monocotyledonous and dicotyledonous weed plants and crop plants are placed in plastic or organic planting pots and covered with soil. The compounds of the invention, formulated in the form of wettable powders (WP) or as emulsion concentrates (EC), are then applied to the surface of the covering soil as aqueous suspension or emulsion with addition of 0.5% additive at a water application rate equivalent to 600 l/ha. After the treatment, the pots are placed in a greenhouse and kept under good growth conditions for the trial plants. After about 3 weeks, the effect of the preparations is scored visually in comparison with untreated controls as percentages. For example, 100% activity=the plants have died, 0% activity=like control plants.
The observed effects on selected crop plants are reported here in comparison to the untreated controls (values in %). The appendices “a” “b” and “c” give differentiation by dosage used with otherwise the same crop plants tested.

[7] = test system: Pharbitis purpurea (PHBPU); assay: Pre-emergence herbicidal action against PHBPU; conditions: dosage 320 g/ha
In short: as §1

[8] = test system: Echinochloa crus-galli (ECHCG); assay: Pre-emergence herbicidal action against ECHCG
In short: as §1

Viola tricolor (VIOTR) [9] = assay: Pre-emergence herbicidal action against VIOTR
In short: as §1

[10] = test system: Verconica persica (VERPE); assay: Post-emergence herbicidal action against VERPE
In short: as §2

Avena fatua (AVEFA) [11] = assay: Pre-emergence herbicidal action against AVEFA; conditions: 320 g/ha, visual scoring after about 3 weeks vs untreated controls
In short: as §1

Lolium rigidum (LOLRI) [12] = assay: Pre-emergence herbicidal action against LOLRI; conditions: dosage 320 g/ha
In short: as §1

[13] = test system: Matricaria inodora (MATIN); assay: Post-emergence herbicidal action against MATIN
In short: as §2

Setaria viridis (SETVI) [14] = assay: Pre-emergence herbicidal action against SETVI; conditions: dosage 320 g/ha
In short: as §1

[15] = test system: Polygonum convolvulus (POLCO); assay: Pre-emergence herbicidal action against POLCO
In short: as §1

Oryza sativa (ORYSA) = conditions: crop plant compatibility
In short: (§4)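 One-leaf-stage crops (2–3 wk post-sowing, sandy loam, greenhouse) sprayed on green parts; 0.5% additive, 600 l/ha water. Rated by eye ~3 wk later, % vs untreated; suffixes a/b/c mark different dosages.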

Zea mays (ZEAMX) [16] = conditions: for Post-emergence action against ZEAMX in % (crop plant compatibility): 20 g/ha, effect in comparison to untreated controls
In short: as §4

[17] = test system: Alopecurus myosuroides (ALOMY); assay: Pre-emergence herbicidal action against ALOMY; conditions: scored visually after about 3 weeks, 100% = plants have died
In short: as §1

[18] = test system: Abutilon theophrasti (ABUTH); assay: Post-emergence herbicidal action against ABUTH; conditions: visual rating about 3 weeks after treatment vs untreated controls (100% = plants have died, 0% = like control plants)
In short: as §2

[19] = test system: Digitaria sanguinalis (DIGSA); assay: Post-emergence herbicidal action against DIGSA; conditions: 80 g/ha, visual rating about 3 weeks after treatment
In short: as §2

[20] = test system: Digitaria sanguinalis (DIGSA); assay: Pre-emergence herbicidal action against DIGSA
From the text: as §3
Tables A1 to A13 below show the effects of selected compounds of the general formula (I) on various harmful plants and at an application rate corresponding to 320 g/ha or lower, which were obtained by the experimental procedure mentioned above. The appendices “a”, “b” and “c” give differentiation by dosage used with otherwise the same harmful plants tested.

Avena fatua (AVEFA) [21] = assay: Post-emergence herbicidal action against AVEFA; conditions: visual rating about 3 weeks after treatment
In short: as §2

Setaria viridis (SETVI) [22] = assay: Post-emergence herbicidal action against SETVI; conditions: dosage 320 g/ha
In short: as §2

Viola tricolor (VIOTR) [23] = assay: Post-emergence herbicidal action against VIOTR
In short: as §2

Lolium rigidum (LOLRI) [24] = assay: Post-emergence herbicidal action against LOLRI
In short: as §2

[25] = test system: Echinochloa crus-galli (ECHCG); assay: Post-emergence herbicidal action against ECHCG
In short: as §2

[26] = test system: Pharbitis purpurea (PHBPU); assay: Post-emergence herbicidal action against PHBPU
In short: as §2

[27] = 80 g/ha, visual rating about 3 weeks after treatment vs untreated controls (100% = plants have died, 0% = like control plants)
[28] = 20 g/ha, effect vs untreated controls
[29] = 80 g/ha, visual scoring after about 3 weeks vs untreated controls

SMILES | Pre-emergence action against MATIN in % ([1]; dosage 320 g/ha) [%] | Post-emergence action against ALOMY in % ([2]; 80 g/ha) [%] | Pre-emergence action against AMARE in % ([3]; 80 g/ha) [%] | Pre-emergence action against AMARE in % ([3]; 320 g/ha) [%] | Post-emergence action against AMARE in % [4, 27] [%] | Pre-emergence action against VERPE in % [5] [%] | Pre-emergence action against ECHCG in % ([8]; dosage 320 g/ha) [%] | Pre-emergence action against VIOTR in % (Viola tricolor (VIOTR) [9]; 320 g/ha, Viola tricolor) [%] | Post-emergence action against VERPE in % ([10]; dosage 80 g/ha) [%] | Pre-emergence action against AVEFA in % (Avena fatua (AVEFA) [11]) [%] | Pre-emergence action against LOLRI in % (Lolium rigidum (LOLRI) [12]) [%] | Pre-emergence action against SETVI in % (Setaria viridis (SETVI) [14]) [%] | Pre-emergence action against POLCO in % ([15]; dosage 80 g/ha) [%] | Pre-emergence action against POLCO in % ([15]; dosage 320 g/ha) [%] | Post-emergence action against ORYSA in % (Oryza sativa (ORYSA); [28]) [%] | Post-emergence action against ZEAMX in % (crop plant compatibility) (Zea mays (ZEAMX) [16]) [%] | Pre-emergence action against ALOMY ([17]; 80 g/ha) [%] | Pre-emergence action against ALOMY ([17]; 320 g/ha) [%] | Pre-emergence action against DIGSA in % [20, 29] [%] | Post-emergence action against AVEFA in % (Avena fatua (AVEFA) [21]; 80 g/ha) [%] | other results
O=C(COc1nn(-c2ccccn2)c(-c2ccc(F)nc2)c1Br)OCC1CCCO1 (stereo not drawn) [Example I-93] | 100 | 100 | 90 | 100 | 80 | 100 | 100 | 100 | 80 | 90 | 100 | 100 | 90 | 90 | 10 | 20 | 90 | 100 | – | – | Pre-emergence action against ZEAMX in % (Zea mays (ZEAMX) [6]): 0%; Pre-emergence action against PHBPU in % [7]: 80%; Post-emergence action against MATIN in % ([13]; dosage 80 g/ha): 80%; Post-emergence action against ORYSA in % (Oryza sativa (ORYSA); 80 g/ha, effect in comparison to untreated controls): 20%
CC(C)=NOC(=O)COc1nn(-c2ncccc2F)c(-c2ccc(F)nc2)c1Br [Example I-45] | – | 90 | 90 | – | 80 | – | – | – | 80 | – | – | – | 90 | – | 10 | 0 | 90 | – | 100 | 80 | Pre-emergence action against MATIN in % ([1]; dosage 80 g/ha): 80%; Post-emergence action against ABUTH in % ([18]; 80 g/ha): 80%; Post-emergence action against DIGSA in % [19]: 90%; Pre-emergence action against ECHCG in % ([8]; dosage 80 g/ha): 90%; Pre-emergence action against VIOTR in % (Viola tricolor (VIOTR) [9]; dosage 80 g/ha): 90%; Post-emergence action against ZEAMX in % (Zea mays (ZEAMX) [16]; crop plant compatibility, 80 g/ha, effect vs untreated controls): 10%
CCOC(=O)COc1nn(-c2ccccn2)c(-c2ccnc(F)c2)c1Br [Example I-01, Ethyl {[4-bromo-5-(2-fluoropyridin-4-yl)-1-(pyridin-2-yl)-1H-pyrazol-3-yl]oxy}acetate] | 100 | 100 | 80 | 90 | – | 90 | 90 | 90 | 80 | 80 | 100 | 100 | – | 90 | – | – | – | 100 | 80 | 90 | Post-emergence action against SETVI in % (Setaria viridis (SETVI) [22]): 80%; Post-emergence action against ALOMY in % ([2]; 320 g/ha): 100%; Post-emergence action against AMARE in % ([4]; 320 g/ha, visual rating about 3 weeks after treatment): 80%; Post-emergence action against ABUTH in % ([18]; 320 g/ha): 80%; Post-emergence action against VIOTR in % (Viola tricolor (VIOTR) [23]; 80 g/ha): 90%; Post-emergence action against VIOTR in % (Viola tricolor (VIOTR) [23]; 320 g/ha): 100%; Post-emergence action against VERPE in % ([10]; 320 g/ha, VERPE): 90%; Pre-emergence action against DIGSA in % ([20]; dosage 320 g/ha): 100%; Post-emergence action against LOLRI in % (Lolium rigidum (LOLRI) [24]; dosage 80 g/ha): 80%; Post-emergence action against LOLRI in % (Lolium rigidum (LOLRI) [24]; dosage 320 g/ha): 90%; Post-emergence action against ECHCG in % ([25]; dosage 80 g/ha): 80%; Post-emergence action against ECHCG in % ([25]; dosage 320 g/ha): 90%; Post-emergence action against MATIN in % ([13]; dosage 320 g/ha): 90%; Post-emergence action against AVEFA in % (Avena fatua (AVEFA) [21]; 320 g/ha): 100%; Post-emergence action against PHBPU in % ([26]; dosage 80 g/ha): 80%; Post-emergence action against PHBPU in % ([26]; dosage 320 g/ha): 80%
